{
  "source": "patent US20240075064A1",
  "about": "“COMPOSITIONS AND METHODS FOR EXPANSION OF T CELLS AND TUMOR INFILTRATING LYMPHOCYTES” (OBSIDIAN THERAPEUTICS, INC., priority 2021, published 2024)",
  "tested_on": "IL15 signaling pathway",
  "experiment": "Phospho-flow cytometry assay of IL15 expression and signaling (pSTAT5, pS6)",
  "format": "cell-based, human",
  "conditions": "regulated mbIL15 TILs, ACZ 0.1-100, 18 hours",
  "experimental": "Pre-REP TILs were prepared similarly to the methods of Example 1-3 and 9, and unengineered and mbIL15 TIL generated accordingly as described in Examples 1-3 and 9. Engagement of the IL15 signaling pathway results in phosphorylation of signal transducers downstream, including the transcription factor protein STATS and ribosomal protein S6. […] Next, the regulated mbIL15 TILs were regulated for 18 hours in the presence of a range of concentrations of ACZ including 0.1, 1, 2.5, 5, 10, 25, 100 as well as vehicle control. The regulated mbIL15 TILs were then collected for staining and FACS analysis.\nBriefly, cells were stained using antibodies for CD3, CD4, CD8, IL15 and a Live/Dead marker. Then cells were fixed in 2% formaldehyde (BD Cytofix) and permeabilized using a methanol-based buffer (BD Phospho Perm III Buffer) before staining with antibodies specific for phosphorylated STATS (Biolegend) and S6 (Cell Signaling Technology). Cells were acquired on the BD Symphony and analyzed using FlowJo software.\nIn order to compare different strategies for IL15 expression, TILs were utilized that constitutively express mbIL15 and regulated mbIL15 TILs. Cryopreserved unengineered TILs, constitutive mbIL15 TILs, and regulated mbIL15 TILs, from three human donors were thawed and then rested in ACZ-free media for 24 hours. […] Cells were acquired on the BD Fortessa and analyzed using FlowJo software.",
  "data": [
    {"compound": "CC(=O)Nc1nnc(S(N)(=O)=O)s1", "note": "[ACZ, acetazolamide]", "values": [
      {"measurement": "staining intensity of pSTAT5 and pS6", "result": "increased with higher concentrations of ACZ"}
    ]}
  ]
}
